The assay concerns the target T1, Axl (Homo sapiens, UniProt P30530).
T1 construct: endogenous in cells; host or cells: HeLa cells
T1 sequence (P30530 26-894): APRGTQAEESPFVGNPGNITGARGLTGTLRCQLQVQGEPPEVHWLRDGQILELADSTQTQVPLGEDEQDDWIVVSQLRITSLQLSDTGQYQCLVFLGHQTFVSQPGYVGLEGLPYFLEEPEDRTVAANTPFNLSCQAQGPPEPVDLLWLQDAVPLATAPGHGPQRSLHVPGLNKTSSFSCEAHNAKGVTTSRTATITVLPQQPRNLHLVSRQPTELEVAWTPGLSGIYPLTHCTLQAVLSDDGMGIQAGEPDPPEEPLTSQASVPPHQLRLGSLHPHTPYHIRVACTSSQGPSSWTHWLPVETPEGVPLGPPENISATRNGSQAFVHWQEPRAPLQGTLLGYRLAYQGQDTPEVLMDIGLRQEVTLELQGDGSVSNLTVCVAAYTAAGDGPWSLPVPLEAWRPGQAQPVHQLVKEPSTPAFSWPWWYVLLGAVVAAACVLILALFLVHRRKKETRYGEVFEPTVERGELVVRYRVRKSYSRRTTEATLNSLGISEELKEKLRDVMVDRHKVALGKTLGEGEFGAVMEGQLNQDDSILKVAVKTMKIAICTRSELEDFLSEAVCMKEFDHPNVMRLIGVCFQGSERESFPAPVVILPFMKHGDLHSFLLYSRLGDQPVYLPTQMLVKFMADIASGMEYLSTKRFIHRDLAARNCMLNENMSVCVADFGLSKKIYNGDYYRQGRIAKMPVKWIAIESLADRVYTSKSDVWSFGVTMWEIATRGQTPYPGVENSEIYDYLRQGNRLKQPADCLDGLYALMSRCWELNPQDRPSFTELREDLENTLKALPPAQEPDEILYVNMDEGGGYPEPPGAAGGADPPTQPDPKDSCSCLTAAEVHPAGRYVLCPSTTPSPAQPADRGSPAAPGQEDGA
Put plainly: Phospho-Akt In-Cell Western Assay (ability to inhibit Axl activity). It is filed as cell-based. The conditions noted are these: Hela cells, stimulated by Axl-antibody cross-linking, phospho-Akt chemiluminescence normalized to relative cell number. As to the method:
The compounds of the invention were tested in the following assay for their ability to inhibit Axl activity.
Phospho-Akt In-Cell Western Assay
• Cell culture plate: 96 well assay plate (Corning 3610), white, clear bottom, tissue-culture treated. • Cells: Hela cells. • Starvation medium: For Axl stimulation: 0.5% FCS (fetal calf serum) in DMEM, plus Axl/Fc (extracellular domain of AXL fused to immunoglobulin Fc region) (R&D, 154-AL) 500 ng/mL. • For EGF (epidermal growth factor) stimulation: 0.5% FCS in DMEM (Dulbecco's modified Eagles medium). • Poly-L-Lysine 0.01% solution (the working solution): 10 μg/ml, dilute In PBS (phosphate buffered saline). • Axl antibody cross-linking: • 1st: Mouse anti-Axl (R&D, MAB154). • 2nd: Biotin-SP-conjugated AffiniPure goat anti-mouse IgG (H+L) (Jackson ImmunoResearch #115-065-003). • Fixing buffer: 4% formaldehyde in PBS. • Wash buffer: 0.1% TritonX-100 in PBS. • Quenching buffer: 3% H2O2, 0.1% Azide in wash buffer, Azide and hydrogen peroxide (H2O2) are added fresh. • Blocking buffer: 5% BSA in TBST (tris buffered saline plus 0.1% Tween 20). • Primary antibody: Rabbit anti-human Phospho-Akt antibody (Cell Signaling 9271): 1×250 diluted in blocking buffer. • Secondary antibody: HRP (horse radish peroxidase)-conjugated Goat anti-Rabbit secondary, stock solution: Jackson ImmunoResearch (Goat anti-Rabbit HRP, #111-035-144) 1:1 diluted in glycerol, store at −20° C. The working solution: 1×2000 dilution of stock in blocking buffer. • Chemiluminescent working solution (Pierce, 37030): SuperSignal ELISA (enzyme linked immunosorbant assay) Pico Chemiluminescent substrate. • Crystal Violet solution: Stock: 2.5% Crystal violet in methanol, filtered and kept at ambient temperature. The working solution: dilute the stock 1:20 with PBS immediately before use. • 10% SDS: working solution: 5% SDS (sodium dodecylsulfate), diluted in PBS Methods: Day 1:
A 96 well TC (tissue culture treated) plate was coated with 10 μg/mL poly-L-Lysine at 37° C. for 30 min, washed twice with PBS, and air-dried for 5 minutes before cells were added. Hela cells were seeded at 10,000 cells/well and the cells were starved in 100 μL starvation medium containing Axl/Fc for 24 hrs.
The cells were pre-treated with test compounds by adding 100 μL of 2× test compound to the starvation medium on the cells. The cells were incubated at 37° C. for 1 hr before stimulation.
The cells were stimulated by Axl-antibody cross-linking as follows: A 5×1st/2nd Axl antibody mixture was made (37.5 μg/mL 1st/100 μg/mL 2nd) in starvation medium and nutated at 4° C. with thorough mixing for 1-2 hours for clustering. The resulting mix was warmed to 37° C. 50 μL of 5× Axl 1st/2nd of antibody cluster was added to the cells and the cells were incubated at 37° C. for 5 min.
After 5 minutes stimulation, the plate was flicked to remove medium and the plate was tapped onto paper towels. Formaldehyde (4.0% in PBS, 100 μL) was added to fix the cells and the cells were incubated at ambient temperature for 20 min without shaking.
The cells were washed with a plate washer buffer to remove the formaldehyde solution. The plate was flicked to removed excess wash buffer and tapped onto paper towels. Quenching buffer (100 μL) was added to each well and the cells were incubated at ambient temperature for 20 minutes without shaking.
The cells were washed with a plate washer buffer to remove the quenching buffer. Blocking buffer (100 μL) was added and the cells were incubated at ambient temperature for at least an hour with gentle shaking.
The cells were washed with a plate washer buffer and diluted primary antibody (50 μL) was added to each well (blocking buffer was added to the negative control wells instead). The plates were incubated overnight at 4° C. with gentle shaking.
The wash buffer was removed, diluted secondary antibody (100 μL) was added, and the cells were incubated at ambient temperature for 1 hour with gentle shaking. […]

Some results are limits rather than exact numbers.

`Nc1nc(Nc2ccc3c(c2)CCC(NC2CCCC2)CC3)nn1-c1cc(-c2ccccc2)c2c(n1)C1CCN2CC1` (stereo not shown) [Compound 70, 1-(1,4-ethano-8-phenyl-1,2,3,4-tetrahydro-1,5-naphthyridin-6-yl)-N^3-(7-cyclopentylamino-6,7,8,9-tetrahydro-5H-benzo[7]annulene-3-yl)-1H-1,2,4-triazole-3,5-diamine]: the IC50 was below 1000 nM.

For the compound `Nc1nc(Nc2ccc(N3CCNC(C(=O)O)C3)c(F)c2)nn1-c1cc(-c2ccccc2)c2c(n1)C1CCN2CC1` (stereo not shown) [Compound 33, 1-(1,4-ethano-8-phenyl-1,2,3,4-tetrahydro-1,5-naphthyridin-6-yl)-N^3-(3-fluoro-4-(3-carboxypiperazin-1-yl)phenyl)-1H-1,2,4-triazole-3,5-diamine], the IC50 lay in the range of 1000 to 10000 nM. Turning to `COC(=O)[C@@H]1CN(c2ccc(Nc3nc(N)n(-c4cc(-c5ccccc5)c5c(n4)C4CCN5CC4)n3)cc2F)CCN1CC1CC1` [Compound 65, 1-(1,4-ethano-8-phenyl-1,2,3,4-tetrahydro-1,5-naphthyridin-6-yl)-N^3-(3-fluoro-4-((3S)-3-methyloxycarbonyl-4-cyclopropylmethylpiperazin-1-yl)phenyl)-1H-1,2,4-triazole-3,5-diamine], the IC50 is below 1000 nM. Under `CN1CCN(c2ccc(Nc3nc(N)n(-c4ncnc5c4C4CCC5C4)n3)cc2)CC1` (stereo not shown) [Compound 20, 1-(5,8-methano-5,6,7,8-tetrahydroquinazolin-4-yl)-N^3-(4-(4-methylpiperazin-1-yl)phenyl)-1H-1,2,4-triazole-3,5-diamine] stands below 1000 nM; under `CN1CCN(C2CCN(c3ccc(Nc4nc(N)n(-c5cc(-c6cccs6)c6c(n5)C5CCC6C5)n4)cc3F)CC2)CC1` (stereo not shown) [Compound 47, 1-(5,8-methano-4-thiophen-2-yl-5,6,7,8-tetrahydroquinoline-2-yl)-N^3-(3-fluoro-4-(4-(4-methylpiperazin-1-yl)piperidin-1-yl)phenyl)-1H-1,2,4-triazole-3,5-diamine], below 1000 nM.

As to `Nc1nc(Nc2ccc(N3CCC(N4CCCC4)CC3)nc2)nn1-c1cc(-c2ccccc2)c2c(n1)C1CCN2CC1` [Compound 29, 1-(1,4-ethano-8-phenyl-1,2,3,4-tetrahydro-1,5-naphthyridin-6-yl)-N^3-(2-(4-(pyrrolidin-1-yl)piperidin-1-yl)pyridine-5-yl)-1H-1,2,4-triazole-3,5-diamine], the IC50 is below 1000 nM. Under `CN1CCN(c2ccc(Nc3nc(N)n(-c4ncc5c(n4)C4CCC5C4)n3)cc2)CC1` (stereo not shown) [Compound 4, 1-(5,8-methano-5,6,7,8-tetrahydroquinazolin-2-yl)-N^3-(4-(4-methylpiperazin-1-yl)phenyl)-1H-1,2,4-triazole-3,5-diamine] stands below 1000 nM; under `Cc1cc(Nc2nc(N)n(-c3cc(-c4ccccc4)c4c(n3)C3CCN4CC3)n2)cnc1N1CCN(CC2CC2)CC1` [Compound 50, 1-(1,4-ethano-8-phenyl-1,2,3,4-tetrahydro-1,5-naphthyridin-6-yl)-N^3-(3-methyl-2-(4-cyclopropylmethylpiperazin-1-yl)pyridine-5-yl)-1H-1,2,4-triazole-3,5-diamine], below 1000 nM. `CCSc1nc2c(c(-n3nc(Nc4ccc(OCCN5CCCC5)cc4)nc3N)n1)C1CCC2C1` (stereo not shown) [Compound 2, 1-(2-ethylthio-5,8-methano-5,6,7,8-tetrahydroquinazolin-4-yl)-N^3-(4-(2-(pyrrolidin-1-yl)ethoxy)phenyl)-1H-1,2,4-triazole-3,5-diamine]: the IC50 is below 1000 nM. Under `Nc1nc(Nc2ccc(N3CCN(C4CC5CCC4C5)CC3)cc2)nn1-c1ncnc2c1C1CCC2C1` (stereo not shown) [Compound 18, 1-(5,8-methano-5,6,7,8-tetrahydroquinazolin-4-yl)-N^3-(4-(4-(bicyclo[2.2.1]heptan-2-yl)piperazin-1-yl)phenyl)-1H-1,2,4-triazole-3,5-diamine] stands below 1000 nM. For `Nc1nc(Nc2ccc3c(c2)CCC(N2CCCC2)CC3)nn1-c1cc(-c2cccs2)c2c(n1)C1CCC2C1` (stereo not shown) [Compound 48, 1-(5,8-methano-4-thiophen-2-yl-5,6,7,8-tetrahydroquinoline-2-yl)-N^3-(7-pyrrolidin-1-yl-6,7,8,9-tetrahydro-5H-benzo[7]annulene-3-yl)-1H-1,2,4-triazole-3,5-diamine], the IC50 was below 1000 nM.

As for `Nc1nc(Nc2ccc3c(c2)CCC(N2CCCC2)CC3)nn1-c1cc(-c2ccccc2)c2c(n1)C1CCN2CC1` (stereo not shown) [Compound 72, 1-(1,4-ethano-8-phenyl-1,2,3,4-tetrahydro-1,5-naphthyridin-6-yl)-N^3-(7-pyrrolidin-1-yl-6,7,8,9-tetrahydro-5H-benzo[7]annulene-3-yl)-1H-1,2,4-triazole-3,5-diamine], the 50% inhibitory concentration (IC50) is below 1000 nM. Under `Nc1nc(Nc2ccc3c(c2)CCC(N2CCCC2)CC3)nn1-c1cc(-c2ccccc2)c2c(n1)C1CCC2C1` (stereo not shown) [Compound 49, 1-(5,8-methano-4-phenyl-5,6,7,8-tetrahydroquinoline-2-yl)-N^3-(7-pyrrolidin-1-yl-6,7,8,9-tetrahydro-5H-benzo[7]annulene-3-yl)-1H-1,2,4-triazole-3,5-diamine] stands below 1000 nM; under `CCOC(=O)C1CCN(C2CCN(c3ccc(Nc4nc(N)n(-c5cc(-c6ccccc6)c6c(n5)C5CCN6CC5)n4)cc3F)CC2)CC1` [Compound 58, (1,4-ethano-8-phenyl-1,2,3,4-tetrahydro-1,5-naphthyridin-6-yl)-N^3-(3-fluoro-4-(4-(4-ethyloxycarbonylpiperidin-1-yl)piperidin-1-yl)phenyl)-1H-1,2,4-triazole-3,5-diamine], below 1000 nM; under `CCOC(=O)CN1CCN(c2ccc(Nc3nc(N)n(-c4cc(-c5ccccc5)c5c(n4)C4CCN5CC4)n3)cc2F)CC1` [Compound 55, 1-(1,4-ethano-8-phenyl-1,2,3,4-tetrahydro-1,5-naphthyridin-6-yl)-N^3-(3-fluoro-4-(4-ethyloxycarbonylmethylpiperazin-1-yl)phenyl)-1H-1,2,4-triazole-3,5-diamine], below 1000 nM. Under “1-((6R,8R)-6,8-dimethylmethano-5,6,7,8-tetrahydroquinoline-2-yl)-N^3-(3-fluoro-4-(4-(pyrrolidin-1-yl)piperidin-1-yl)phenyl)-1H-1,2,4-triazole-3,5-diamine [Compound 34]” stands below 1000 nM.

Source of the values: patent US8609650B2, “Bridged bicyclic aryl and bridged bicyclic heteroaryl substituted triazoles useful as Axl inhibitors” (Rigel Pharmaceuticals, Inc., priority 2006, dated 2013).
